The text below walks through data of patent US20060148692A1, “Novel protein and its dna” (priority 2003, published 2006).

Assay [1] concerns GeneBank No. 170665. Nature of the assay: Gene expression analysis (oligonucleotide microarray) in rat primary nerve cells under endoplasmic reticulum stress. The note with it: standardized with the median (=1). The format is cell-based. The method, then:
Rat primary nerve cells prepared from TP-17 CD rats (Nippon Charles River) were suspended in B27-containing neurobasal medium (NB medium, GIBCO), then put at a density of 250,000 cells/well in a type I collagen-coated 24-well plate (SUMILON), and cultured for 3 days. (i) Tunicamycin (Tnc) was added at a final concentration of 100 nM to the cultured cells, (ii) thapsigargin (Thap) was added at a final concentration of 2 nM to the cultured cells, or (iii) after the medium was exchanged twice with glucose-free B27-containing DMEM medium, 2-deoxyglucose (2DG) was added at a concentration of 3 mM to the cultured cells. After 4, 8, and 24 hours, total RNA was extracted from the respective cells by using RNeasy Mini Kit (Qiagen) according to its instructions. As the control, the cells to which each medium was added in place of the above chemicals (Tnc, Thap and 2DG) (cells to which no chemical was added) were used. These were used as the material to conduct gene expression analysis using an oligonucleotide microarray (Rat Genome U34A, Affymetrix).
The experimental method was in accordance with instructions of Affymetrix (Expression analysis technical manual). As a result of comparison of gene expression profiles of the cells stimulated with each chemical and the cells to which no chemical was added, the expression of GeneBank No. 170665 was promoted by endoplasmic reticulum stress stimulation [the above (i), (ii) and (iii)] (Table 1).

For assay [2], the system named is GeneBank No. 170665. Nature of the assay: Gene expression analysis (oligonucleotide microarray) in rat primary nerve cells stimulated with β-amyloid. The format is cell-based. To be noted: β-amyloid 25 nM, standardized with the median (=1). As to the method: For the purpose of examining whether the expression of GeneBank No. 170665 whose expression was promoted by endoplasmic reticulum stress was influenced by β-amyloid stimulation, gene expression analysis was conducted using the cells stimulated with β-amyloid in the same manner as in Example 1.
Rat primary nerve cells prepared in the same manner as in Example 1 were suspended in N2-containing DMEM medium (GIBCO), then put at a density of 250,000 cells/well and cultured for 4 days. After culture, β-amyloid suspended at a final concentration of 25 nM in the above medium was added to the cells. After 4, 8, and 24 hours, total RNA was extracted from the cells and gene analysis was conducted in the same manner as in Example 1. As the control, the cells to which the above medium was added in place of β-amyloid were used. The expression of GeneBank No. 170665 was promoted in the cells stimulated with β-amyloid, as compared with the control (Table 2).

Another assay has as its system SK-N-AS cells. The assay can be described thus: DNA cleavage accompanying tunicamycin-induced cell-death (CELL DEATH DETECTION ELISA PLUS) in transformed cells. The format is cell-based, human. To be noted: SK-N-AS cells transformed with the C1 gene vs pcDNA3.1 control cells; tunicamycin for 1 or 2 days. As to the method: A plasmid comprising the nucleotide sequence represented by SEQ ID NO:2 was designated C1-pcDNA3.1/V5-His TOPO, and a transformant having the plasmid was designated Escherichia coli DH5α/C1-pcDNA3.1N5-His TOPO. This transformant was cultured in LB medium, and the vector was recovered by using QUAGEN plasmid midi kit (Qiagen). This C1 gene expression vector was transformed into SK-N-AS cells by using Nucleofector (AMAXA). As the control, pcDNA3.1 (Invitrogen) was transformed into SK-N-AS cells.
The respective transformed cells were put at a density of 7500 cells/well in a type I collagen-coated 96-well plate (IWAKI) and then cultured overnight, and after tunicamycin was added at various concentrations, the cells were cultured for 1 or 2 days to induce cell-death. After culture, DNA cleavage accompanying cell-death was detected by using CELL DEATH DETECTION ELISA^PLUS kit (Roche). The experimental method was in accordance with instructions attached to the kit.
On the technique in general: An ELISA detects its analyte on a solid surface through an enzyme-linked reagent.

The next assay relates to IMR-32 cells. The assay can be described thus: Aβ40 and Aβ42 concentration in culture supernatant of transformed cells by ELISA. The note with it: IMR-32 cells transformed with C1 vs GFP control cells; 24 hours after medium exchange. The format is cell-based. As to the method:
The C1 gene expression vector described in Example 4 was transformed into IMR-32 cells by using Nucleofector (AMAXA). As the control, a GFP gene expression vector (Wako) was transformed into other IMR-32 cells. The respective transformed cells were put at a density of 1,000,000 cells/well in a type I collagen-coated 24-well plate (IWAKI) and cultured for 16 hours. After the medium was exchanged with a new one, the cells were cultured for additional 24 hours, and the concentrations of Aβ40 and Aβ42 in the culture supernatant were measured respectively by ELISA (Biochemistry 34, 10272-10278, 1995).

tunicamycin: the Gene expression level in the assay with GeneBank No. 170665 [1] (tunicamycin 100 nM, after 4 hours) is given as 3.00; in the assay on GeneBank No. 170665 [1] (tunicamycin 100 nM, after 8 hours) it was 2.81; in the assay on GeneBank No. 170665 [1] (tunicamycin 100 nM, after 24 hours), 3.63.

As to `C/C=C(/C)C(=O)O[C@H]1C(C)=C2[C@H]([C@@H]1OC(=O)CCCCCCC)[C@@](C)(OC(C)=O)C[C@H](OC(=O)CCC)[C@@]1(O)[C@H]2OC(=O)[C@@]1(C)O` [thapsigargin], the Gene expression level came out at 8.77 in the assay on GeneBank No. 170665 [1] (thapsigargin 2 nM, after 4 hours); 9.65 with GeneBank No. 170665 [1] (thapsigargin 2 nM, after 8 hours); 7.56 in the assay on GeneBank No. 170665 [1] (thapsigargin 2 nM, after 24 hours).

As for `O=CC[C@@H](O)[C@H](O)[C@H](O)CO` [2DG, 2-deoxyglucose], the Gene expression level with GeneBank No. 170665 [1] (2DG 3 mM in glucose-free DMEM medium, after 4 hours) is given as 16.71; with GeneBank No. 170665 [1] (2DG 3 mM in glucose-free DMEM medium, after 8 hours), 15.11; with GeneBank No. 170665 [1] (2DG 3 mM in glucose-free DMEM medium, after 24 hours) it was 14.55.

As for β-amyloid, the Gene expression level in the assay with GeneBank No. 170665 [2] (after 4 hours) was determined as 3.44; in the assay on GeneBank No. 170665 [2] (after 8 hours) it was 6.99; in the assay with GeneBank No. 170665 [2] (after 24 hours) it was 4.40.

B1: C1: 264-amino-acid protein (SEQ ID NO: 1) encoded by SEQ ID NO:2; tested by transforming cells with C1 gene expression vector (protein, listed as Homo sapiens)
chain: MGGAQLELPSGARPGVCVRRSFRAHAGDQPRRPPGPIPVPGTMKQESAAPNTPPTSQSPTPSAQFPRNDGDPQALWIFGYGSLVWRPDFAYSDSRVGFVRGYSRRFWQGDTFHRGSDKMPGRVVTLLEDHEGCTWGVAYQVQGEQVSKALKYLNVREAVLGGYDTKEVTFYPQDAPDQPLKALAYVATPQNPGYLGPAPEEAIATQILACRGFSGHNLEYLLRLADFMQLCGPQAQDEHLAAIVDAVGTMLPCFCPTEQALALV
B1: the “DNA cleavage (cell-death)” value in the assay with SK-N-AS cells is “promoted”. Besides, in the assay with IMR-32 cells, the “Aβ40 concentration in culture supernatant” value is given as “reduced” and the “Aβ42 concentration in culture supernatant” value is “reduced”.
